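96-well plates; 48 h exposure; 5 concentrations. Endpoints by linear interpolation between flanking doses. Not reached: highest tested concentration assigned. GI50: concentration for 50% inhibition of growth. Definition used: TGI = concentration required for complete inhibition of growth.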
Key:
Test in all cases: DTP human tumour cell line panel, 48 h
786-0 renal = system: 786-0 renal
ACHN renal = system: ACHN renal
BT-549 breast = system: BT-549 breast
DU-145 prostate = system: DU-145 prostate
NCI-H23 lung = system: NCI-H23 lung
SN12C renal = system: SN12C renal
TK-10 renal = system: TK-10 renal
U251 CNS = system: U251 CNS
UACC-62 melanoma = system: UACC-62 melanoma
SR leukemia = system: SR leukemia

SMILES | GI50 (786-0 renal) | TGI (786-0 renal) | GI50 (ACHN renal) | TGI (ACHN renal) | GI50 (BT-549 breast) | TGI (BT-549 breast) | GI50 (DU-145 prostate) | TGI (DU-145 prostate) | GI50 (NCI-H23 lung) | TGI (NCI-H23 lung) | GI50 (SN12C renal) | TGI (SN12C renal) | GI50 (TK-10 renal) | TGI (TK-10 renal) | GI50 (U251 CNS) | TGI (U251 CNS) | GI50 (UACC-62 melanoma) | TGI (UACC-62 melanoma) | TGI (SR leukemia) | GI50 (SR leukemia)
CCCCCCCCCCCCOC1C(C(COC2OC(C(O)CO)C3OC(C)(C)OC23)OC(=O)Nc2ccc([N+](=O)[O-])cc2)OC2OC(C)(C)OC21 (centres undefined) | 1.7 µM | 3.15 µM | 3.4 µM | 10.6 µM | 1.9 µM | 5.57 µM | 2.52 µM | 7.17 µM | 12.6 µM | 28.2 µM | 1.78 µM | 3.52 µM | 2.68 µM | 7.29 µM | 1.85 µM | 3.59 µM | 2.06 µM | 4.61 µM | – | –
CCc1cccc(C(C)C)c1C1C(=O)C(=O)N(c2nc3ccccc3s2)C(=O)C1=O | – | > 100 µM | – | > 100 µM | – | – | – | – | – | > 100 µM | – | > 100 µM | – | > 100 µM | – | > 100 µM | – | > 100 µM | > 100 µM | –
Cc1nn(C(=O)CC(=O)Nc2ccccc2Cl)c(C)c1N=Nc1ccccc1Cl | – | > 100 µM | – | > 100 µM | – | – | – | – | – | > 100 µM | – | > 100 µM | – | > 100 µM | – | > 100 µM | – | > 100 µM | > 100 µM | –
CCCCCC1C2C(=O)NC(=O)C1C(=O)NC2=O (centres undefined) | – | > 100 µM | – | > 100 µM | – | – | – | – | – | > 100 µM | – | > 100 µM | – | > 100 µM | – | – | – | > 100 µM | – | –
O=C1c2cccc3cc4ccccc4c(c23)C(=O)N1CCCNCCNCCCN1C(=O)c2cccc3cc4ccccc4c(c23)C1=O | – | 1.69 µM | – | 1.6 µM | – | 2.4 µM | – | 2.04 µM | – | 1.77 µM | – | 1.86 µM | – | 2.18 µM | – | 1.73 µM | – | – | 1.51 µM | –
Nc1n[nH]c(=O)c2c1c(Br)cn2C1OC(CO)C(O)C1O (centres undefined) | – | > 100 µM | – | > 100 µM | – | – | – | – | – | 25 µM | – | 43.5 µM | – | > 100 µM | – | > 54.6 µM | – | 37.5 µM | 14.3 µM | –
NCCN.O=N[O-].O=N[O-].O=N[O-].O=N[O-].[Co+3].[K+] | > 100 µM | > 100 µM | > 100 µM | > 100 µM | – | – | – | – | > 100 µM | > 100 µM | > 100 µM | > 100 µM | > 100 µM | > 100 µM | > 100 µM | > 100 µM | > 100 µM | > 100 µM | – | –
CC(=O)NC1C(=O)CC(c2ccccc2)N(C)C1c1ccccc1 (centres undefined) | – | > 100 µM | – | > 100 µM | – | – | – | – | – | > 100 µM | – | > 100 µM | – | > 100 µM | – | > 100 µM | – | > 100 µM | > 100 µM | –
COc1ccc(N2CCN(CC(=O)N3CCN(c4nnc(-c5ccc(Cl)cc5)c(-c5ccc(Cl)cc5)n4)CC3)CC2)cc1 | 10 µM | > 100 µM | 6.42 µM | 55.6 µM | 4.83 µM | > 100 µM | 75 µM | > 100 µM | 35.9 µM | > 100 µM | 24.8 µM | > 100 µM | 9.18 µM | > 100 µM | 10.6 µM | > 100 µM | – | – | 8.65 µM | 2.56 µM
O=c1c2ccccc2nc(-c2ccccc2Cl)n1NC1OC(CO)C(O)C(O)C1O (centres undefined) | – | > 100 µM | – | > 100 µM | – | – | – | – | – | > 100 µM | – | > 100 µM | – | > 100 µM | – | > 100 µM | – | > 100 µM | – | –
CN(C)CCCn1c2c(c3ccc([N+](=O)[O-])cc3c1=O)C(=O)c1ccccc1-2 | 4.75 µM | 21.2 µM | 4.54 µM | 17.8 µM | – | – | 5.61 µM | 29.8 µM | 4.95 µM | 24.2 µM | 4.21 µM | 24.5 µM | 15.3 µM | 73.7 µM | 6.36 µM | 27.7 µM | 7.13 µM | 24.6 µM | > 100 µM | 1.98 µM
Cc1cn2cc(-c3ccncc3)nc2s1 | – | > 100 µM | – | > 100 µM | – | – | – | – | – | > 100 µM | – | > 100 µM | – | > 100 µM | – | > 100 µM | – | > 100 µM | – | –
CCN(CC)CCCC(C)NC(=S)N/N=C(\C)c1ccccn1 (centres undefined) | 2.83 µM | 12 µM | 2.99 µM | > 100 µM | – | – | 3.79 µM | > 100 µM | 5.22 µM | > 100 µM | 4.14 µM | > 100 µM | 21.6 µM | > 100 µM | 2.78 µM | > 100 µM | 3.02 µM | > 100 µM | > 100 µM | 2.45 µM
COCC(O)CN1C(N)=NC(O)C1O (centres undefined) | – | > 100 µM | – | > 100 µM | – | – | – | – | – | > 100 µM | – | > 100 µM | – | > 100 µM | – | > 100 µM | – | – | > 100 µM | –
COc1cc2c(c(OC)c1OC)-c1c(c3ccc([N+](=O)[O-])cc3c(=O)n1CCCN=[N+]=[N-])C2=O | 15.4 µM | 43.8 µM | 14.1 µM | 39.6 µM | 47.5 µM | > 100 µM | 71.3 µM | > 100 µM | 15.2 µM | 43.6 µM | 30.4 µM | > 100 µM | 13.1 µM | 33.1 µM | 8.36 µM | 23.3 µM | 32.5 µM | > 100 µM | – | –
CC/C(=C(\c1ccccc1)c1ccc(OCC[N+](C)(C)C)cc1)c1ccccc1 | – | 27.9 µM | – | 34.6 µM | – | – | – | – | – | – | – | 25.7 µM | – | – | – | 29.2 µM | – | 26.8 µM | – | –
Cc1cc(N2CCOCC2)nc(N(CCNc2ccnc3cc(Cl)ccc23)Cc2cccs2)n1 | 1.69 µM | 3.12 µM | 1.91 µM | 3.79 µM | – | – | – | – | 3 µM | > 100 µM | 1.9 µM | 4.01 µM | 2.35 µM | 6.57 µM | 1.88 µM | 3.64 µM | 1.9 µM | 3.65 µM | 3.94 µM | 1.47 µM
CC(=O)/C=C\C(=O)NNS(=O)(=O)c1ccc(C)cc1 | – | > 100 µM | – | > 100 µM | – | – | – | – | – | > 100 µM | – | > 100 µM | – | > 100 µM | – | > 100 µM | – | > 100 µM | > 100 µM | –
COc1cc(/C=C/C(=O)C(C)(C)C)cc(OC)c1OC | – | > 100 µM | – | > 100 µM | – | – | – | – | – | 94.4 µM | – | > 100 µM | – | > 100 µM | – | > 100 µM | – | > 100 µM | > 100 µM | –

— PubChem BioAssay (NCI)
